Measured values reported in ChEMBL document CHEMBL1155268, “Synthesis of amyloid beta peptide 1-42 (E22Delta) click peptide: pH-triggered in situ production of its native form” (Bioorg Med Chem, 2009).
Values after ≈ are worked out from the molar mass of the structure shown.

Assay: Solubility in water by HPLC
Format: physicochemical

CC[C@H](C)[C@H](NC(=O)[C@H](C)NC(=O)CNC(=O)[C@H](CCCCN)NC(=O)[C@H](CC(N)=O)NC(=O)[C@H](CO)NC(=O)CNC(=O)[C@@H](NC(=O)[C@H](CC(=O)O)NC(=O)[C@H](C)NC(=O)[C@H](Cc1ccccc1)NC(=O)[C@H](Cc1ccccc1)NC(=O)[C@@H](NC(=O)[C@H](CC(C)C)NC(=O)[C@H](CCCCN)NC(=O)[C@H](CCC(N)=O)NC(=O)[C@H](Cc1cnc[nH]1)NC(=O)[C@H](Cc1cnc[nH]1)NC(=O)[C@@H](NC(=O)[C@H](CCC(=O)O)NC(=O)[C@H](Cc1ccc(O)cc1)NC(=O)CNC(=O)[C@H](CO)NC(=O)[C@H](CC(=O)O)NC(=O)[C@H](Cc1cnc[nH]1)NC(=O)[C@H](CCCNC(=N)N)NC(=O)[C@H](Cc1ccccc1)NC(=O)[C@H](CCC(=O)O)NC(=O)[C@H](C)NC(=O)[C@@H](N)CC(=O)O)C(C)C)C(C)C)C(C)C)C(=O)N[C@H](C(=O)NCC(=O)N[C@@H](CC(C)C)C(=O)N[C@@H](CCSC)C(=O)N[C@H](C(=O)NCC(=O)NCC(=O)N[C@H](C(=O)N[C@H](C(=O)N[C@H](C(=O)N[C@@H](C)C(=O)O)[C@@H](C)CC)C(C)C)C(C)C)C(C)C)[C@@H](C)CC
solubility: 1500 µg/mL (≈ 342 µM)
